Test results: US20230065640A1, “COMBINATION THERAPIES AND BIOMARKERS FOR TREATING B-CELL LYMPHOMAS” (priority 2020, published 2023)

How the values were obtained:
[1] = system: SU-DHL-10, OCI-LY-7 and SU-DHL-2 cells; test: Cell proliferation XTT assay in DLBCL cells with or without MYCC rearrangement; format: cell-based, Human; conditions: DLBCL with a MYCC rearrangement versus without, 72 h incubation, FIG. 4
Procedure: (§1) Cell Culture. Human diffuse large B-cell lymphoma cells, SU-DHL-10, SU-DHL-4, OCI-LY-7 and SU-DHL-2 cells (purchased from Cell Bank, Shanghai Institutes for Biological Sciences, Chinese Academy of Sciences) were cultured in RPMI 1640 (Hyclone™, SH30809.01B) supplemented with 10% fetal bovine serum (GEMINI, 900-108). Cultures were incubated at 37° C., in 5% CO2.
Cell Treatment and proliferation assay. SU-DHL-10, OCI-LY-7 and SU-DHL-2 cell were seeded in 96-well plates (Corning-Costar, 3599) at 40000 cells/well in 200 μl culture medium treated with YM155 (50, 25, 12.5, 2.5, 1, 0.5 nM; Apex BIO, A4221) or DMSO (0.1%; Amresco, 67-68-5). After 72 h incubation, cell proliferation was measured by XTT assay (Cell Proliferation Kit II XTT, sigma, 11465015001) according to manufacturer's protocols. Briefly, after YM155 treatment, added to each well 50 μl of the XTT labeling mixture, then incubated the micro-plate for 4 h in a humidified atmosphere. The absorbance of wavelength was determined at 490 nm (OD490) and 650 nm (OD650) respectively by SpectraMax 190. The IC50 was calculated by the value of OD490. OD650.

survivin = conditions: Minematsu et al. 2008; cited from earlier work
[2] = system: SU-DHL-4 (double hit (MYCC/BCL2), CD20 positive); test: SU-DHL-4 CDX model; format: in vivo, BALB/C-nu mice; conditions: FIG. 10; b/c-nu; PC-002 5 mg/kg i.p., alone and in combination with CHOP or RCHOP
Procedure: CHOP: cyclophosphamide, 40 mg/kg, QW*3, D1, i.v., doxorubicin, 3.3 mg/kg, QW*3, D1, i.v., vincristine, 0.5 mg/kg, QW*3, D1, i.v., prednisone, 0.2 mg/kg, QD*5*3W,D1-5, p.o. RCHOP: rituximab, 25 mg/kg, QW*3, i.p., cyclophosphamide, 40 mg/kg, QW*3, D1, i.v., doxorubicin, 3.3 mg/kg, QW*3, D1, i.v., vincristine, 0.5 mg/kg, QW*3, D1, i.v., prednisone, 0.2 mg/kg, QD*5*3W,D1-5, p.o. PC-002: 5 mg/kg, QD*5*3w, D1-5, i.p.

[3] = system: DLBCL with a MYCC rearrangement; test: CDX mouse model of DLBCL with a MYCC rearrangement; format: in vivo, BALB/C-nu mice
Procedure: (§2) Tumor Xenograft models (CDX models). BALB/C-nu mice (6-8 weeks, SPF Biotechnology Co., Ltd) were inoculated by s.c. injection of tumor cell (SU-DHL-10, SU-DHL-4 or OCI-LY-7) suspension containing Matrigel (Corning)/PBS at a ratio of 1:1. 1×10^7 cells were inoculated. When tumors reached 150-200 mm^3, treatment was initiated. Tumor growth was monitored twice a week. Tumor volume was calculated by applying the following equation: tumor volume=½(length×width^2).

c-MYC = test: Western blot of c-MYC in DLBCL cells; format: cell-based, Human; conditions: DLBCL cells with a MYCC rearrangement; treated 24 hours; FIG. 5B
Procedure: as §1
Western blot. SU-DHL-10, OCI-LY-7 and SU-DHL-2 cells were treated with/without YM155 for 24 hours. Cell lysates were prepared in lysis buffer (Thermo Fisher). Protein concentrations were determined using a Bio-Rad protein assay (Bio-Rad). 20 μg protein was loaded in 4%-12% SDS-PAGE (Invitrogen), and transferred to nitrocellulose. Membranes were blocked in 5% BSA (Sigma) for 1 hour, incubated with the primary antibody overnight at 4° C., washed and incubated with the appropriate horseradish-conjugated secondary antibody (1:5000, Cell Signaling Technology) for 1 hour at room temperature. An enhanced chemiluminescent kit (Beyotime Biotechnology) was used to visualize the signal. The following antibodies were used: c-MYC (Abcam) and GAPDH (Beyotime Biotechnology).

[4] = system: DLBCL cells with a MYCC rearrangement; test: Apoptosis assay (Annexin V/PI staining); format: cell-based, Human; conditions: 24 hours post-treatment, FIG. 5A
Procedure: as §1
Apoptosis Assay. Apoptosis was detected by Annexin V/PI staining kit (Thermo Fisher) according to the manufacturer's instructions. Briefly, cells were plated at a density of 5×10^5 cells/mL in RPMI 1640 media with 2% FBS with desired concentrations of YM155. At 24 hours post-treatment the cells were harvested and tested for apoptosis by Annexin V and PI staining. Cell analysis was performed using a FACSAria (BD).

[5] = system: prostate, pancreatic, and lung cancer; conditions: cited from earlier work
[6] = system: DLBCL with a MYCC rearrangement and BCL2 expression (MYCC/BCL2 associated lymphoma); test: CDX mouse model of DLBCL with a MYCC rearrangement and BCL2 expression; format: in vivo, BALB/C-nu mice; conditions: FIG. 8; alone and in combination with BCL2 inhibitor (ABT199)
Procedure: as §2

[7] = FIG. 6, alone and in combination with PARP inhibitor (olaparib)

In the case of “1-(2-Methoxyethyl)-2-methyl-4,9-dioxo-3-(pyrazin-2-ylmethyl)-4,9-dihydro-1H-naphtho[2,3-d] imidazolium bromide [YM155]”, the “sensitivity of DLBCL to YM155 (cell proliferation)” value [1] is given as “more sensitive”, the survivin expression (survivin) is given as “down-regulation of survivin” and the “effect on tumor volume” value [2] is given as “profound effect on reducing tumor volume, essentially eliminating tumor growth”. For the same molecule, the “effect on tumor growth” value [3, 7] was “tumor regression”, the “effect on tumor growth” value ([3]; FIG. 7, alone and in combination with CHOP) was “tumor regression” and the “effect on tumor volume” value ([3]; FIG. 9, b/c-nu, PC-002 5 mg/kg i.p., alone and in combination with CHOP) was “significant effect on reducing tumor volume”. For the same molecule, the MYCC expression (c-MYC) was “lowers the MYCC expression”, the “apoptosis of DLBCL cells” value [4] was “induces apoptosis” and the antitumor activity ([5]; Minematsu et al. 2008) was “potent antitumor activity”. The “anti-tumor effects in various in vivo cancer models” value ([5]; prostate, pancreatic, and lung cancer, Nakahara et al. 2007, Na et al. 2012) was “exerts anti-tumor effects” and the “effect on tumor growth” value [6] was “complete tumor regression”.

In the case of `CC1(C)CCC(CN2CCN(c3ccc(C(=O)NS(=O)(=O)c4ccc(NCC5CCOCC5)c([N+](=O)[O-])c4)c(Oc4cnc5[nH]ccc5c4)c3)CC2)=C(c2ccc(Cl)cc2)C1` [ABT199], the “effect on tumor growth” value [6] is reported as “no significant effect on tumor growth”.

For `O=C(c1cc(Cc2n[nH]c(=O)c3ccccc23)ccc1F)N1CCN(C(=O)C2CC2)CC1` [olaparib], the “effect on tumor growth” value [3, 7] was “no significant effect on tumor growth”.
